Tested on: Crude diglycosidase
Assay: Examination of pH in the conversion into isoflavone aglycons by diglycosidase using soybean materials
Format: biochemical, Penicillium multicolor IAM7153
Details: for existing ratio of aglycon of each isoflavone family / Decomposition efficiency of glycitin family in roasted soy flour / Decomposition efficiency of glycitin family in soymilk: 55° C.
Experimental: A substrate solution of 450 μL was prepared by suspending 50 mg of each soybean material (roasted soy flour (manufactured by Fuji Shokuryo K.K.), soymilk (manufactured by Gitoh Shokuhin K.K.), defatted soybean (manufactured by Fuji Seiyu K.K.), concentrated soybean protein (manufactured by Fuji Seiyu K.K.)), and adjusting the pH to 2 to 11 with hydrochloric acid or sodium hydroxide. Each enzyme solution of pH 2–11 wherein diglycosidase activity of crude diglycosidase was adjusted to 1.88 AU/mL was added thereto in an amount of 50 μL and the whole was reacted at 55° C. at the total volume of 500 μL. To the reaction mixture was added 700 μL of ethanol after 0, 1, 3, and 6 hours of the reaction. After stirring and ultrasonication, the mixture was subjected to centrifugal separation at 15,000 rpm and 4° C. for 10 minutes. The supernatant was filtered through a filter and the existence of isoflavone glycosides and aglycon isoflavones contained in the reaction mixture was detected by HLPC (Tables 15 to 26).

## COc1cc2c(=O)c(-c3ccc(O)cc3)coc2cc1O [glycitein]
Concentrated soybean protein, pH 3.7 for 6 hours
  existing ratio of aglycon of each isoflavone family: 78%
Defatted soybean, pH 3.4 for 6 hours
  existing ratio of aglycon of each isoflavone family: 68%
pH1.6, heat treatment of enzyme: no, reaction time 0 h
  Decomposition efficiency of glycitin family in concentrated soybean protein: 11.3%
pH1.6, heat treatment of enzyme: no, reaction time 1 h
  Decomposition efficiency of glycitin family in concentrated soybean protein: 11.6%
pH1.6, heat treatment of enzyme: no, reaction time 3 h
  Decomposition efficiency of glycitin family in concentrated soybean protein: 11.7%
pH1.6, heat treatment of enzyme: no, reaction time 6 h
  Decomposition efficiency of glycitin family in concentrated soybean protein: 11.7%
pH1.6, heat treatment of enzyme: yes, reaction time 6 h
  Decomposition efficiency of glycitin family in concentrated soybean protein: 10.8%
pH2, heat treatment of enzyme no, reaction time 0 h
  Decomposition efficiency of glycitin family in roasted soy flour: 7.9
pH2, heat treatment of enzyme no, reaction time 1 h
  Decomposition efficiency of glycitin family in roasted soy flour: 9.4
pH2, heat treatment of enzyme no, reaction time 3 h
  Decomposition efficiency of glycitin family in roasted soy flour: 9.5
pH2, heat treatment of enzyme no, reaction time 6 h
  Decomposition efficiency of glycitin family in roasted soy flour: 10.1
pH2, heat treatment of enzyme yes, reaction time 6 h
  Decomposition efficiency of glycitin family in roasted soy flour: 10.4
pH2.3, heat treatment of enzyme no, reaction time 0 h
  Decomposition efficiency of glycitin family in soymilk: 7.2
pH2.3, heat treatment of enzyme no, reaction time 1 h
  Decomposition efficiency of glycitin family in soymilk: 48.7
pH2.3, heat treatment of enzyme no, reaction time 3 h
  Decomposition efficiency of glycitin family in soymilk: 52.3
pH2.3, heat treatment of enzyme no, reaction time 6 h
  Decomposition efficiency of glycitin family in soymilk: 53.5
pH2.3, heat treatment of enzyme yes, reaction time 6 h
  Decomposition efficiency of glycitin family in soymilk: 6.9
pH2.6, heat treatment of enzyme: no, reaction time 0 h
  Decomposition efficiency of glycitin family in defatted soybean: not detected
pH2.6, heat treatment of enzyme: no, reaction time 1 h
  Decomposition efficiency of glycitin family in defatted soybean: not detected
pH2.6, heat treatment of enzyme: no, reaction time 3 h
  Decomposition efficiency of glycitin family in defatted soybean: not detected
pH2.6, heat treatment of enzyme: no, reaction time 6 h
  Decomposition efficiency of glycitin family in defatted soybean: not detected
pH2.6, heat treatment of enzyme: yes, reaction time 6 h
  Decomposition efficiency of glycitin family in defatted soybean: not detected
pH2.7, heat treatment of enzyme: no, reaction time 0 h
  Decomposition efficiency of glycitin family in concentrated soybean protein: 11.3%
pH2.7, heat treatment of enzyme: no, reaction time 1 h
  Decomposition efficiency of glycitin family in concentrated soybean protein: 25.0%
pH2.7, heat treatment of enzyme: no, reaction time 3 h
  Decomposition efficiency of glycitin family in concentrated soybean protein: 25.7%
pH2.7, heat treatment of enzyme: no, reaction time 6 h
  Decomposition efficiency of glycitin family in concentrated soybean protein: 29.2%
pH2.7, heat treatment of enzyme: yes, reaction time 6 h
  Decomposition efficiency of glycitin family in concentrated soybean protein: 11.5%
pH3, heat treatment of enzyme no, reaction time 0 h
  Decomposition efficiency of glycitin family in roasted soy flour: 7.9
pH3, heat treatment of enzyme no, reaction time 1 h
  Decomposition efficiency of glycitin family in roasted soy flour: 61.3
pH3, heat treatment of enzyme no, reaction time 3 h
  Decomposition efficiency of glycitin family in roasted soy flour: 69.2
pH3, heat treatment of enzyme no, reaction time 6 h
  Decomposition efficiency of glycitin family in roasted soy flour: 68.3
pH3, heat treatment of enzyme yes, reaction time 6 h
  Decomposition efficiency of glycitin family in roasted soy flour: 9.3
pH3.4, heat treatment of enzyme: no, reaction time 0 h
  Decomposition efficiency of glycitin family in defatted soybean: not detected
pH3.4, heat treatment of enzyme: no, reaction time 1 h
  Decomposition efficiency of glycitin family in defatted soybean: not detected
pH3.4, heat treatment of enzyme: no, reaction time 3 h
  Decomposition efficiency of glycitin family in defatted soybean: not detected
pH3.4, heat treatment of enzyme: no, reaction time 6 h
  Decomposition efficiency of glycitin family in defatted soybean: not detected
pH3.4, heat treatment of enzyme: yes, reaction time 6 h
  Decomposition efficiency of glycitin family in defatted soybean: not detected
pH3.5, heat treatment of enzyme no, reaction time 0 h
  Decomposition efficiency of glycitin family in soymilk: 7.2
pH3.5, heat treatment of enzyme no, reaction time 1 h
  Decomposition efficiency of glycitin family in soymilk: 78.1
pH3.5, heat treatment of enzyme no, reaction time 3 h
  Decomposition efficiency of glycitin family in soymilk: 100.0
pH3.5, heat treatment of enzyme no, reaction time 6 h
  Decomposition efficiency of glycitin family in soymilk: 100.0
pH3.5, heat treatment of enzyme yes, reaction time 6 h
  Decomposition efficiency of glycitin family in soymilk: 7.6
pH3.7, heat treatment of enzyme: no, reaction time 0 h
  Decomposition efficiency of glycitin family in concentrated soybean protein: 11.1%
pH3.7, heat treatment of enzyme: no, reaction time 1 h
  Decomposition efficiency of glycitin family in concentrated soybean protein: 66.7%
pH3.7, heat treatment of enzyme: no, reaction time 3 h
  Decomposition efficiency of glycitin family in concentrated soybean protein: 73.5%
pH3.7, heat treatment of enzyme: no, reaction time 6 h
  Decomposition efficiency of glycitin family in concentrated soybean protein: 77.5%
pH3.7, heat treatment of enzyme: yes, reaction time 6 h
  Decomposition efficiency of glycitin family in concentrated soybean protein: 11.3%
pH4, heat treatment of enzyme no, reaction time 0 h
  Decomposition efficiency of glycitin family in roasted soy flour: 8.6
pH4, heat treatment of enzyme no, reaction time 1 h
  Decomposition efficiency of glycitin family in roasted soy flour: 81.2
pH4, heat treatment of enzyme no, reaction time 3 h
  Decomposition efficiency of glycitin family in roasted soy flour: 91.8
pH4, heat treatment of enzyme no, reaction time 6 h
  Decomposition efficiency of glycitin family in roasted soy flour: 100.0
pH4, heat treatment of enzyme yes, reaction time 6 h
  Decomposition efficiency of glycitin family in roasted soy flour: 9.0
pH4.8, heat treatment of enzyme no, reaction time 0 h
  Decomposition efficiency of glycitin family in soymilk: 6.2
pH4.8, heat treatment of enzyme no, reaction time 1 h
  Decomposition efficiency of glycitin family in soymilk: 63.0
pH4.8, heat treatment of enzyme no, reaction time 3 h
  Decomposition efficiency of glycitin family in soymilk: 78.9
pH4.8, heat treatment of enzyme no, reaction time 6 h
  Decomposition efficiency of glycitin family in soymilk: 91.7
pH4.8, heat treatment of enzyme yes, reaction time 6 h
  Decomposition efficiency of glycitin family in soymilk: 6.5
pH4.8, heat treatment of enzyme: no, reaction time 0 h
  Decomposition efficiency of glycitin family in defatted soybean: 36.0%
pH4.8, heat treatment of enzyme: no, reaction time 1 h
  Decomposition efficiency of glycitin family in defatted soybean: 59.9%
pH4.8, heat treatment of enzyme: no, reaction time 3 h
  Decomposition efficiency of glycitin family in defatted soybean: 62.5%
pH4.8, heat treatment of enzyme: no, reaction time 6 h
  Decomposition efficiency of glycitin family in defatted soybean: 68.1%
pH4.8, heat treatment of enzyme: yes, reaction time 6 h
  Decomposition efficiency of glycitin family in defatted soybean: 43.8%
